In patent US20260022142A1, “MACROCYCLIC IMMUNOMODULATORS” (Bristol-Myers Squibb Company, priority 2022, published 2026):
Bridge positions count the residues as written; N and C are the ends. Square brackets hold non-standard residues; d marks the D form. Peptide text beside a SMILES is read from it. * marks the point of attachment. Phe(4-CONH2) = NC(=O)c1ccc(C[C@H](N)C(=O)O)cc1; Phe(3,4-F2) = N[C@@H](Cc1ccc(F)c(F)c1)C(=O)O; Bip = N[C@@H](Cc1ccc(-c2ccccc2)cc1)C(=O)O; Phe(3-Me) = Cc1cccc(C[C@H](N)C(=O)O)c1; Phe(4-F) = N[C@@H](Cc1ccc(F)cc1)C(=O)O; NH(CH2)12COOH = O=C(O)CCCCCCCCCCCCN*; Val(3-OH) = CC(C)(O)[C@H](N)C(=O)O; 4Pal = N[C@@H](Cc1ccncc1)C(=O)O; Cha = N[C@@H](CC1CCCCC1)C(=O)O; Carboxymethyl = O=C(O)C*; Orn = NCCC[C@H](N)C(=O)O; Aun = NCCCCCCCCCCC(=O)O; Dab = NCC[C@H](N)C(=O)O; Abu = CC[C@H](N)C(=O)O; Dap = NC[C@H](N)C(=O)O

Target: T1, PD-1/PD-L1 interaction (PE-labeled human PD-L1-Ig binding to Jurkat cell line over-expressing human PD-1) (Homo sapiens, UniProt Q15116)
T1 construct: expressed in transfected cells; host or cells: Jurkat
T1 sequence (Q15116 25-288): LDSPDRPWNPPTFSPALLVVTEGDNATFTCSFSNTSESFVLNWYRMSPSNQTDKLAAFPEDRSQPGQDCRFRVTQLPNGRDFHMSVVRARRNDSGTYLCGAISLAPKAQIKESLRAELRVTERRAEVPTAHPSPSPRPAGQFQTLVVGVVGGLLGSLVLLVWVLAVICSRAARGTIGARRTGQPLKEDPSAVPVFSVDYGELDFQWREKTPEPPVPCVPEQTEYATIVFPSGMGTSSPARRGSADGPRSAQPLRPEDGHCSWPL
Assay: Jurkat-PD-1 Cell Binding High-Content Screening Assay (CBA)
Format: cell-based
Details: Jurkat cell line over-expressing human PD-1; PE-labeled PD-L1-Ig 20 nM final; read-out: Jurkat hPD1-PDL1 IC50
Procedure, shortened: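 Binding of fluorescent PD-L1-Ig (20 nM final) to Jurkat-PD-1 cells was measured by automated imaging after 1 h, following a 2 h compound pre-treatment at 37° C.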

Question: With Cc1cccc(C[C@@H]2NC(=O)[C@H](CC(=O)O)NC(=O)[C@H](Cc3ccc(OCC(=O)O)cc3)NC(=O)[C@H](CN)NC(=O)CSC[C@@H](C(=O)N[C@@H](CCN)C(=O)NCCCCCCCCCCC(=O)O)NC(=O)[C@H](CO)NC(=O)[C@H](C(C)(C)O)NC(=O)[C@H](CC3CCCCC3)NC(=O)[C@H](CCN)NC(=O)[C@@H](CC(C)C)NC(=O)[C@H](CCCN)NC(=O)[C@H](Cc3ccc(OCC(=O)O)cc3)NC(=O)[C@H](Cc3ccc(-c4ccccc4)cc3)NC(=O)[C@H](Cc3ccc(OCC(=O)O)cc3)NC2=O)c1 [Compound 2213] ({CH2CO}-[Dap]Y(Carboxymethyl)D[Phe(3-Me)]Y(Carboxymethyl)[Bip]Y(Carboxymethyl)[Orn][dL][Dab][Cha][Val(3-OH)]SC[Dab][Aun]-OH; thioether N-14) as the compound, how does the IC50 read?
Answer: 11 nM

Question: Which IC50 does the source give for CC[C@@H]1NC(=O)CSC[C@@H](C(=O)N[C@@H](CCN)C(=O)NCCCCCCCCCCC(=O)O)NC(=O)[C@H](CO)NC(=O)[C@H](C(C)(C)O)NC(=O)[C@H](CC2CCCCC2)NC(=O)[C@H](CCN)NC(=O)[C@@H](CC(C)C)NC(=O)[C@H](CCCN)NC(=O)[C@H](Cc2ccc(OCC(=O)O)cc2)NC(=O)[C@H](Cc2ccc(-c3ccccc3)cc2)NC(=O)[C@H](Cc2ccc(OCC(=O)O)cc2)NC(=O)[C@H](Cc2cccc(C)c2)NC(=O)[C@H](CC(=O)O)NC(=O)[C@H](Cc2ccc(OCC(=O)O)cc2)NC1=O [Compound 2214] ({CH2CO}-[Abu]Y(Carboxymethyl)D[Phe(3-Me)]Y(Carboxymethyl)[Bip]Y(Carboxymethyl)[Orn][dL][Dab][Cha][Val(3-OH)]SC[Dab][Aun]-OH; thioether N-14) here?
Answer: 8 nM

Question: Which IC50 does the source give for Cc1cccc(C[C@@H]2NC(=O)[C@H](CC(=O)O)NC(=O)[C@H](Cc3ccc(OCC(=O)O)cc3)NC(=O)[C@H](Cc3ccncc3)NC(=O)CSC[C@@H](C(=O)N[C@@H](CCN)C(=O)NCCCCCCCCCCC(=O)O)NC(=O)[C@H](CO)NC(=O)[C@H](C(C)(C)O)NC(=O)[C@H](CC3CCCCC3)NC(=O)[C@H](CCN)NC(=O)[C@@H](CC(C)C)NC(=O)[C@H](CCCN)NC(=O)[C@H](Cc3ccc(OCC(=O)O)cc3)NC(=O)[C@H](Cc3ccc(-c4ccccc4)cc3)NC(=O)[C@H](Cc3ccc(OCC(=O)O)cc3)NC2=O)c1 [Compound 2215] ({CH2CO}-[4Pal]Y(Carboxymethyl)D[Phe(3-Me)]Y(Carboxymethyl)[Bip]Y(Carboxymethyl)[Orn][dL][Dab][Cha][Val(3-OH)]SC[Dab][Aun]-OH; thioether N-14) here?
Answer: 12.8 nM

Question: Which IC50 does the source give for Cc1cccc(C[C@@H]2NC(=O)[C@H](CC(=O)O)NC(=O)[C@H](Cc3ccc(OCC(=O)O)cc3)NC(=O)[C@H](Cc3ccc(F)cc3)NC(=O)CSC[C@@H](C(=O)N[C@@H](CCN)C(=O)NCCCCCCCCCCC(=O)O)NC(=O)[C@H](CO)NC(=O)[C@H](C(C)(C)O)NC(=O)[C@H](CC3CCCCC3)NC(=O)[C@H](CCN)NC(=O)[C@@H](CC(C)C)NC(=O)[C@H](CCCN)NC(=O)[C@H](Cc3ccc(OCC(=O)O)cc3)NC(=O)[C@H](Cc3ccc(-c4ccccc4)cc3)NC(=O)[C@H](Cc3ccc(OCC(=O)O)cc3)NC2=O)c1 [Compound 2216] ({CH2CO}-[Phe(4-F)]Y(Carboxymethyl)D[Phe(3-Me)]Y(Carboxymethyl)[Bip]Y(Carboxymethyl)[Orn][dL][Dab][Cha][Val(3-OH)]SC[Dab][Aun]-OH; thioether N-14) here?
Answer: 36.7 nM

Question: For Cc1cccc(C[C@@H]2NC(=O)[C@H](CC(=O)O)NC(=O)[C@H](Cc3ccc(OCC(=O)O)cc3)NC(=O)[C@H](Cc3ccc(F)c(F)c3)NC(=O)CSC[C@@H](C(=O)N[C@@H](CCN)C(=O)NCCCCCCCCCCC(=O)O)NC(=O)[C@H](CO)NC(=O)[C@H](C(C)(C)O)NC(=O)[C@H](CC3CCCCC3)NC(=O)[C@H](CCN)NC(=O)[C@@H](CC(C)C)NC(=O)[C@H](CCCN)NC(=O)[C@H](Cc3ccc(OCC(=O)O)cc3)NC(=O)[C@H](Cc3ccc(-c4ccccc4)cc3)NC(=O)[C@H](Cc3ccc(OCC(=O)O)cc3)NC2=O)c1 [Compound 2217] ({CH2CO}-[Phe(3,4-F2)]Y(Carboxymethyl)D[Phe(3-Me)]Y(Carboxymethyl)[Bip]Y(Carboxymethyl)[Orn][dL][Dab][Cha][Val(3-OH)]SC[Dab][Aun]-OH; thioether N-14), which IC50 is on record?
Answer: 27.9 nM

Question: Which IC50 does the source give for Cc1cccc(C[C@@H]2NC(=O)[C@H](CC(=O)O)NC(=O)[C@H](Cc3ccc(OCC(=O)O)cc3)NC(=O)[C@H](Cc3ccc(C(N)=O)cc3)NC(=O)CSC[C@@H](C(=O)N[C@@H](CCN)C(=O)NCCCCCCCCCCC(=O)O)NC(=O)[C@H](CO)NC(=O)[C@H](C(C)(C)O)NC(=O)[C@H](CC3CCCCC3)NC(=O)[C@H](CCN)NC(=O)[C@@H](CC(C)C)NC(=O)[C@H](CCCN)NC(=O)[C@H](Cc3ccc(OCC(=O)O)cc3)NC(=O)[C@H](Cc3ccc(-c4ccccc4)cc3)NC(=O)[C@H](Cc3ccc(OCC(=O)O)cc3)NC2=O)c1 [Compound 2218] ({CH2CO}-[Phe(4-CONH2)]Y(Carboxymethyl)D[Phe(3-Me)]Y(Carboxymethyl)[Bip]Y(Carboxymethyl)[Orn][dL][Dab][Cha][Val(3-OH)]SC[Dab][Aun]-OH; thioether N-14) here?
Answer: 7.1 nM

Question: Which IC50 does the source give for Cc1cccc(C[C@@H]2NC(=O)[C@H](CC(=O)O)NC(=O)[C@H](Cc3ccc(OCC(=O)O)cc3)NC(=O)[C@H](Cc3cnc[nH]3)NC(=O)CSC[C@@H](C(=O)N[C@@H](CCN)C(=O)NCCCCCCCCCCC(=O)O)NC(=O)[C@H](CO)NC(=O)[C@H](C(C)(C)O)NC(=O)[C@H](CC3CCCCC3)NC(=O)[C@H](CCN)NC(=O)[C@@H](CC(C)C)NC(=O)[C@H](CCCN)NC(=O)[C@H](Cc3ccc(OCC(=O)O)cc3)NC(=O)[C@H](Cc3ccc(-c4ccccc4)cc3)NC(=O)[C@H](Cc3ccc(OCC(=O)O)cc3)NC2=O)c1 [Compound 2219] ({CH2CO}-HY(Carboxymethyl)D[Phe(3-Me)]Y(Carboxymethyl)[Bip]Y(Carboxymethyl)[Orn][dL][Dab][Cha][Val(3-OH)]SC[Dab][Aun]-OH; thioether N-14) here?
Answer: 4.7 nM

Question: Which IC50 does the source give for Cc1cccc(C[C@@H]2NC(=O)[C@H](CC(=O)O)NC(=O)[C@H](Cc3ccc(OCC(=O)O)cc3)NC(=O)[C@H](CC(N)=O)NC(=O)CSC[C@@H](C(=O)N[C@@H](CCN)C(=O)NCCCCCCCCCCC(=O)O)NC(=O)[C@H](CO)NC(=O)[C@H](C(C)(C)O)NC(=O)[C@H](CC3CCCCC3)NC(=O)[C@H](CCN)NC(=O)[C@@H](CC(C)C)NC(=O)[C@H](CCCN)NC(=O)[C@H](Cc3ccc(OCC(=O)O)cc3)NC(=O)[C@H](Cc3ccc(-c4ccccc4)cc3)NC(=O)[C@H](Cc3ccc(OCC(=O)O)cc3)NC2=O)c1 [Compound 2220] ({CH2CO}-NY(Carboxymethyl)D[Phe(3-Me)]Y(Carboxymethyl)[Bip]Y(Carboxymethyl)[Orn][dL][Dab][Cha][Val(3-OH)]SC[Dab][Aun]-OH; thioether N-14) here?
Answer: 12.3 nM

Question: Which IC50 does the source give for Cc1cccc(C[C@@H]2NC(=O)[C@H](CC(=O)O)NC(=O)[C@H](Cc3ccc(OCC(=O)O)cc3)NC(=O)[C@H](CN)NC(=O)CSC[C@@H](C(=O)N[C@@H](CCN)C(=O)NCCCCCCCCCCCCC(=O)O)NC(=O)[C@H](CO)NC(=O)[C@H](C(C)(C)O)NC(=O)[C@H](CC3CCCCC3)NC(=O)[C@H](CCN)NC(=O)[C@@H](CC(C)C)NC(=O)[C@H](CCCN)NC(=O)[C@H](Cc3ccc(OCC(=O)O)cc3)NC(=O)[C@H](Cc3ccc(-c4ccccc4)cc3)NC(=O)[C@H](Cc3ccc(OCC(=O)O)cc3)NC2=O)c1 [Compound 2222] ({CH2CO}-[Dap]Y(Carboxymethyl)D[Phe(3-Me)]Y(Carboxymethyl)[Bip]Y(Carboxymethyl)[Orn][dL][Dab][Cha][Val(3-OH)]SC[Dab]-{NH(CH2)12COOH}; thioether N-14) here?
Answer: 17.6 nM
